Entries after “also recorded” stand apart in the source; their conditions may differ. Like-named read-outs stand apart in the source and are kept apart here.
Key:
[1] = test system: PC-3 and LNCaP prostate cancer cell lines; assay: Clonogenic survival (colony formation) assay; format: cell-based; settings: Homo sapiens
Description: In addition to short-term cytotoxicity assays selected polyphenylurea compounds were tested for effects on clonogenic survival of cancer cells in colony formation assays, which can be considered a more stringent test of anticancer activity.

[2] = test system: normal bone marrow mononuclear cells; assay: Normal bone marrow mononuclear cells versus Jurkat, Annexin V, 20 hours; format: cell-based; settings: 5 μM
Description: After incubation, cells were washed, stained with FITC-conjugated Annexin V antibody and propidium iodide, and fluorescence measured by flow cytometry as described above.

[3] = test system: tumor cells pulsed with specific antigen, antigen-specific T cells; assay: Antigen-specific CTL cytotoxicity, 51Cr release; format: cell-based; settings: 10 μM, 4 hours
Description: After 4 hours, ^51Cr release was measured. Data shown in FIG. 39 are expressed as a percentage of total release induced by detergent lysis, and data represent mean±standard deviation of duplicate determinations.

[4] = test system: PPC1, ALVA31, DU145 and HeLa cells; assay: Combination with TRAIL; format: cell-based; settings: 1 µM
Description: Similar tests of the effects of polyphenyl urea compounds on apoptosis induction by the biological agent TRAIL, an apoptosis inducing member of the Tumor Necrosis Factor (TNF) family were also performed.

Jurkat leukemia cells [5] = assay: Jurkat leukemia cell death, Annexin V/propidium iodide flow cytometry; format: cell-based
HeLa cells = assay: Transfected HeLa cells, apoptosis by Annexin V; format: cell-based; settings: 5 μM, 20 hours
Description: In addition to transfecting the cells with full-length XIAP, analogous assays were performed with HeLa cells transfected with plasmids over-expressing various XIAP mutants. […] The mutant was produced by site-directed mutagenesis to modify positions 148, 219, 223, 314 and 323 to contain alanine. HeLa cells were also transiently transfected with plasmids encoding Bcl-XL, an anti-apoptotic protein that operates upstream of caspases to suppress Cytochrome C release from mitochondria. HeLa cells (2.5×10^5) were seeded onto six well plates in 2 mL DMEM H21 with 5% FBS. After 24 hrs, cells were transfected (Gene Porter) with plasmids. […] Both floating and adherent cells were then recovered from cultures, washed, and apoptosis was determined by Annexin V staining using flow cytometry.
Bcl-XL over-expression did afford resistance to traditional anticancer drugs such as etoposide and CrmA (a caspase-8 inhibitor), and protected cells from apoptosis induced by TRAIL, confirming that these anti-apoptotic proteins were functional in these experiments.

[6] = test system: Jurkat and HeLa tumor cell lines; assay: Tumor cell lines Jurkat and HeLa, 2 days, annexin-V; format: cell-based; set-up: dose or concentration left out as unconfirmed
Description: After 2 days, cell viability was assessed by annexin-V staining.

XIAP = XIAP (Homo sapiens, UniProt P98170); assay: SMAC binding/competition assay: biotinylated SMAC 7-mer on NeutrAvidin plates, GST-XIAP detected by anti-GST; settings: in words
Description: Peptide compounds containing unnatural amino acids in the 792 series, 792-33 and 792-35 (see FIG. 12 and 20 and Example XI), and an active compound in the TPI 1332 series, TPI 1332-69, were tested for binding activity in the SMAC binding assay as described above in Example X. For this assay, biotinylated SMAC 7-mer peptide (50 ng) was bound to 96 well plates coated with NeutrAvidin (Pierce, Rockford, Ill.) at 1 mg/ml in 100 μl per well of 50 mM HEPES pH 7.4, 100 mM NaCl 1 mM EDTA, 10% sucrose, 0.1% CHAPS, 10 mM DTT.

XIAP-inhibited caspase-3 = target: T1, XIAP-inhibited caspase-3 (Homo sapiens, UniProt P98170); assay: IAP derepression assay: Ac-DEVD-AFC hydrolysis by caspase-3 in the presence of GST-XIAP; format: biochemical; settings: in words
T1 construct: in a caspase derepression assay using full length XIAP; made in house; host or cells: bacteria
Description: The ratio of Vmax for hydrolysis of Ac-DEVD-AFC in the presence and absence of the candidate mixture was calculated and used to identify those that contain an agent that derepresses an IAP-inhibited caspase.
Each mixture was aliquoted in a 25 microliter volume and in duplicate to a well of a 96 well microtiter plate. […] Fluorescence of liberated AFC was immediately detected from each well for 30 minutes at 30 second intervals. The Vmax for hydrolysis of AC-DEVD-AFC from each well was measured using the softmax software package.

[7] = test system: U937 leukemia cells over-expressing XIAP; assay: U937-Neo versus U937-XIAP leukemia cells, Annexin V; format: cell-based; settings: 5 or 8 μM, 20 hours
Description: After incubation, cells were washed, stained with FITC-conjugated Annexin V antibody and propidium iodide, and fluorescence measured by flow cytometry as described in Example XI.
Equal amounts of protein were subjected to SDS-PAGE (4-20% gradient gels from ISC BioExpress, Kaysville, Utah), followed by transfer to nitrocellulose membranes. […] Secondary antibodies consisted of horseradish peroxidase (HRP)-conjugated:goat anti-mouse IgG (Bio-Rad, Hercules, Calif.). Detection was performed by the enhanced chemiluminescence (ECL) method. […] Lysates were prepared from the cells, normalized for total protein content and analyzed by SDS-PAGE immunoblotting using antibodies specific for XIAP, caspase-3, and β-actin.

Jurkat leukemia cells [8] = assay: Jurkat leukemia cell death, Annexin V/propidium iodide flow cytometry; format: cell-based; settings: for cells killed: one day treatment
Description: The following assay was used to test the ability of individual compounds from the TPI 1396 and TPI 1391 libraries to induce apoptosis of cultured tumor cell lines. Each of the compounds listed in Table IX was individually added to Jurkat leukemia cells (6.25×10^5 cells/mL) in RPMI containing 2.5% FBS at various concentrations for 20 hours. After incubation, cells were washed and stained with FITC-conjugated Annexin V antibody and propidium iodide (Biovision; Mountain View, Calif.). Cells were incubated for 20 minutes at room temperature in the dark and fluorescence was measured by flow cytometry (FACScan, Immunocytometry system; Becton-Dickinson; San Jose, Calif.). Cells staining positive for Annexin V were deemed non-viable.
The TPI I396-34 and TPI 1391-28 compounds were further tested as set forth below.

[9] = test system: HCT-116 colon cancer cells; assay: HCT-116 colon cancer xenograft in Balb/C nu-/nu- mice; format: in vivo; settings: 30 mg/kg i.p. on days 6, 7 and 8
Description: Additional experiments were performed using a different tumor xenograft model. HCT-116 colon cancer cells (2.5 million) were injected subcutaneously in the flanks of female Balb/C nu-/nu-mice. […] Tumor volume was measured by external calipers at least twice weekly for 19 days (see FIG. 32c). On day 19, the mice were sacrificed and the tumors were excised and weighed.

T1 sequence (P98170 whole entry): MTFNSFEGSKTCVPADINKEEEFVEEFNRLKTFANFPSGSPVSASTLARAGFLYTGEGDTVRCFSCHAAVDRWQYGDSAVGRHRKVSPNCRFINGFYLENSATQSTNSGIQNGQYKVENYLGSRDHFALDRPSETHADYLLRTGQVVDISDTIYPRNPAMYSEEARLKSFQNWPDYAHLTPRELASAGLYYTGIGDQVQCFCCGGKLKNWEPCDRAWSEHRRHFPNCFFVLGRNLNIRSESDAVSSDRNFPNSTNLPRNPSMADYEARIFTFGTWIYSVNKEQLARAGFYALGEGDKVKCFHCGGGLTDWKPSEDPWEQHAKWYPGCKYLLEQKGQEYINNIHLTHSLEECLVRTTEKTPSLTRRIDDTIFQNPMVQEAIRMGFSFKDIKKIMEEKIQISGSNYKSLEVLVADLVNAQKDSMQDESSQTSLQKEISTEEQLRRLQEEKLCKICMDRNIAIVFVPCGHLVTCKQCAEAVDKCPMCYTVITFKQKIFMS
Chain of XIAP (P98170 whole entry): as above

`COc1ccc(CCN2CCC[C@@H]2CN(C(=O)Nc2ccccc2)[C@@H](CNC(=O)Nc2ccccc2)CC2CCCCC2)cc1` [TPI 1396-34] was tested, and the activity at 10 µM ([1]; 10 μM, read-out: colony formation, % of control) was under 5%, the EC50 ([1]; 3 days culture, colonies counted one week later, read-out: average EC50 dose, clonogenic survival) was 3000 nM and the “toxicity to normal bone marrow cells” value [2] was “little toxicity”. The “CTL-mediated lysis of tumor targets” value [3] was “sensitizes tumor targets to CTL-mediated lysis”, the “sensitization to TRAIL-induced apoptosis” value [4] was “sensitized” and the “time to half-maximal killing” value (Jurkat leukemia cells [5]; 10 µM) was “approximately 12 hours”. The “apoptosis in the presence of zVAD-fmk” value (Jurkat leukemia cells [5]; 100 μM zVAD-fmk, 20 hours) was “suppressible”, the “apoptosis in HeLa cells over-expressing Bcl-XL” value (HeLa cells) was “not blocked” and the “apoptosis in HeLa cells over-expressing full-length XIAP” value (HeLa cells) was “protected”. The “apoptosis in HeLa cells transfected with a control vector” value (HeLa cells) was “induced apoptosis”, the “increase of killing above background” value [6] was over 4 fold and the “competition with XIAP binding to the SMAC peptide (SMAC competition assay)” value (XIAP) was “does not compete”. The “activity in the caspase derepression assay using full length XIAP” value (XIAP-inhibited caspase-3) was “active XIAP inhibitors”, the “effect of over-expression of XIAP on apoptosis induction” value [7] was “resistant” and the cells killed (Jurkat leukemia cells [8]; 5 μM) was “about 75%”. For the same compound, the cells killed (Jurkat leukemia cells [8]; 8 μM) was about 85%, the “time to maximum killing” value (Jurkat leukemia cells [8]; 10 µM) was “about 24 hours” and the cytotoxicity at 1 µM (Jurkat leukemia cells [8]; Homo sapiens, Jurkat, 20 h, 1 μM, 20 hours, read-out: % nonviable cells) was 13%. It also gave a cytotoxicity at 5 µM (Jurkat leukemia cells [8]; Homo sapiens, Jurkat, 20 h, 5 μM (first column headed 5), 20 hours, read-out: % nonviable cells) of 73%, a cytotoxicity at 5 µM (Jurkat leukemia cells [8]; Homo sapiens, Jurkat, 20 h, 5 μM (second column headed 5), 20 hours, read-out: % nonviable cells) of 51% and a cytotoxicity at 10 µM (Jurkat leukemia cells [8]; Homo sapiens, Jurkat, 20 h, 10 μM, 20 hours, read-out: % nonviable cells) of 62%. For the same compound, the cytotoxicity at 25 µM (Jurkat leukemia cells [8]; Homo sapiens, Jurkat, 20 h, 25 μM, 20 hours, read-out: % nonviable cells) was 83%, the cytotoxicity at 50 µM (Jurkat leukemia cells [8]; Homo sapiens, Jurkat, 20 h, 50 μM, 20 hours, read-out: % nonviable cells) was 85% and the EC50 (Jurkat leukemia cells [8]; Homo sapiens, Jurkat, 24 h, one-day exposure, read-out: EC50 for killing Jurkat leukemia cells) was about 6.5 µM. For the same compound, the “tumor size / growth, HCT116 xenograft” value [9] was “tumor size was reduced; also recorded: significantly slowed the rate of growth”.

From patent US20060258581A1, “Methods and composition for derepressions of IAP-inhibited caspase” (priority 2001, published 2006)
